Assay results as given in article PMC10810011 (Expert opinion on drug delivery, 2023).
Structures can show the parent of a compound that is named as a salt.

Tests used:
Muscarinic M2 = target: T1, Muscarinic M2 (Homo sapiens, UniProt P08172); experiment: InVEST radioligand filter binding, Muscarinic M2; conditions: read-out: IC50 (M) of reference compound, tested in parallel
T1 sequence (P08172 1-466): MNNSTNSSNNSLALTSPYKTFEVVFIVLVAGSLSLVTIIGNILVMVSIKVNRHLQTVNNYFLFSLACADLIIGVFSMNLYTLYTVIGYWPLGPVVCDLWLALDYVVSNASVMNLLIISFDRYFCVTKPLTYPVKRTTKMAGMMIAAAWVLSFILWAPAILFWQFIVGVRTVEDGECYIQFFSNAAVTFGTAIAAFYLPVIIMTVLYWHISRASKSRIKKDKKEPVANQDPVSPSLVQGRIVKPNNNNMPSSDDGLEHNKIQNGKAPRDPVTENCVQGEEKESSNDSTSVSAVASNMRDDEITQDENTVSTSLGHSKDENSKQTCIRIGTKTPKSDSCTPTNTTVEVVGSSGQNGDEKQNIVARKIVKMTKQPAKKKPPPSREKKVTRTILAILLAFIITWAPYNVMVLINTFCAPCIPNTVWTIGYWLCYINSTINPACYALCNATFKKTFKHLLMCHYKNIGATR

AHR-activation = target: T2, AHR-activation (Homo sapiens, UniProt P35869)
T2 sequence (P35869 11-848): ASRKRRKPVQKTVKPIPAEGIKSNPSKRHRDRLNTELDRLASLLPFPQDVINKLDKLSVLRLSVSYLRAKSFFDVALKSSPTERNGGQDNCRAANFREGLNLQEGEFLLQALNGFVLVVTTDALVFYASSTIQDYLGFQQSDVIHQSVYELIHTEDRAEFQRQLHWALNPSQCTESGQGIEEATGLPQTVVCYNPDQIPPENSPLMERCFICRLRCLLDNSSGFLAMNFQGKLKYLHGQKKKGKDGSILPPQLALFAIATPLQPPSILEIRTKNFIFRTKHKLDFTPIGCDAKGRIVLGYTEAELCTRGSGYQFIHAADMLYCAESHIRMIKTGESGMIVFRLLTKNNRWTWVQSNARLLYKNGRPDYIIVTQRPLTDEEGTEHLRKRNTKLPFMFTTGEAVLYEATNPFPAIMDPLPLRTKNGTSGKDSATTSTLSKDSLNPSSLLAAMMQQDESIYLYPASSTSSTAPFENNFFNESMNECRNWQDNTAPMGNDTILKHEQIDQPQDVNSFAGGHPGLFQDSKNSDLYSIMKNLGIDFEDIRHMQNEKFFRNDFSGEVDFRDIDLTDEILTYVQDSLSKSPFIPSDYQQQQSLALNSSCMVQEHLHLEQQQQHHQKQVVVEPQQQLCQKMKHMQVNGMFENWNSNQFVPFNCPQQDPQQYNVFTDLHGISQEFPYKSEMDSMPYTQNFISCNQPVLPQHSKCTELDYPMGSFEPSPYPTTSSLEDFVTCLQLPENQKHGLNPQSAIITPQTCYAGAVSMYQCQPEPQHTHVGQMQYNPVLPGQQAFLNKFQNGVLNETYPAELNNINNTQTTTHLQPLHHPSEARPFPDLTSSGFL

5-HT1B = 5-HT1B (Homo sapiens, UniProt P28222); experiment: InVEST radioligand filter binding, 5-HT1B
5-HT3 = target: T3, 5-HT3 (Homo sapiens, UniProt P46098); experiment: InVEST radioligand filter binding, ion channel 5-HT3; conditions: read-out: IC50 (M) of reference compound, tested in parallel
T3 sequence (P46098 24-478): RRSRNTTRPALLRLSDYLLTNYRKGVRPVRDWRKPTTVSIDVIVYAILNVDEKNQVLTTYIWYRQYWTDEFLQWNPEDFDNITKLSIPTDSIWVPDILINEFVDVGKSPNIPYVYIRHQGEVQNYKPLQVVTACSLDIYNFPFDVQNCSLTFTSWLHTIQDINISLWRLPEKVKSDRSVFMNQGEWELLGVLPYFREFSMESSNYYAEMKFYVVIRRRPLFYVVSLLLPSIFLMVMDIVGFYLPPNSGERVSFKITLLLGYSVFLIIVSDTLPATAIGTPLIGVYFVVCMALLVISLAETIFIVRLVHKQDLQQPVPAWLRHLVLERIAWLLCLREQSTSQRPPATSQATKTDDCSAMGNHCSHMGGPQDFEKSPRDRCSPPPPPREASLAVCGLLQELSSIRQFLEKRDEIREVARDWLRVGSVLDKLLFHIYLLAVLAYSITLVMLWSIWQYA

PDE3A = PDE3A (Homo sapiens, UniProt Q14432); experiment: InVEST enzymatic activity, PDE3A; assay type: biochemical; conditions: read-out: IC50 (M) of reference compound, tested in parallel
PDE4A = PDE4A (Homo sapiens, UniProt P27815); experiment: InVEST enzymatic activity, PDE4A; assay type: biochemical; conditions: read-out: IC50 (M) of reference compound, tested in parallel
alpha2A adrenergic = target: T4, alpha2A adrenergic (Homo sapiens, UniProt P08913); experiment: InVEST radioligand filter binding, alpha2A adrenergic; conditions: read-out: IC50 (M) of reference compound, tested in parallel
T4 sequence (P08913 1-465): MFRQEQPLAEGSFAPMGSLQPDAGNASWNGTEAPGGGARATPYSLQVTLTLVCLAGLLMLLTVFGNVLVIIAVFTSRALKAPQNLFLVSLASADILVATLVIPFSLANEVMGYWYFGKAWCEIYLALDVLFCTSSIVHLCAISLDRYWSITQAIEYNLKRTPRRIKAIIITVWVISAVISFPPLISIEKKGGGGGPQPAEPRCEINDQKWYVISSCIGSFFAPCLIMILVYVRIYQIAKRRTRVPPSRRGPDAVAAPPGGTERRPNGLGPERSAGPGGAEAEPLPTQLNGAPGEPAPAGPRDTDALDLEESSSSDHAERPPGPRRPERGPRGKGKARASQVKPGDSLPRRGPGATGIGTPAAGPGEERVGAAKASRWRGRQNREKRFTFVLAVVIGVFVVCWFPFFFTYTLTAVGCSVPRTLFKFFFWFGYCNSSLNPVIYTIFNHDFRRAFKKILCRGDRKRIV

Thrombin alpha = Thrombin alpha (Homo sapiens, UniProt P00734); experiment: InVEST enzymatic activity, Thrombin alpha; assay type: biochemical; conditions: read-out: IC50 (M) of reference compound, tested in parallel
CCK = target: T5, CCK (Homo sapiens, UniProt P32238); experiment: InVEST radioligand filter binding, CCK
T5 sequence (P32238 1-428): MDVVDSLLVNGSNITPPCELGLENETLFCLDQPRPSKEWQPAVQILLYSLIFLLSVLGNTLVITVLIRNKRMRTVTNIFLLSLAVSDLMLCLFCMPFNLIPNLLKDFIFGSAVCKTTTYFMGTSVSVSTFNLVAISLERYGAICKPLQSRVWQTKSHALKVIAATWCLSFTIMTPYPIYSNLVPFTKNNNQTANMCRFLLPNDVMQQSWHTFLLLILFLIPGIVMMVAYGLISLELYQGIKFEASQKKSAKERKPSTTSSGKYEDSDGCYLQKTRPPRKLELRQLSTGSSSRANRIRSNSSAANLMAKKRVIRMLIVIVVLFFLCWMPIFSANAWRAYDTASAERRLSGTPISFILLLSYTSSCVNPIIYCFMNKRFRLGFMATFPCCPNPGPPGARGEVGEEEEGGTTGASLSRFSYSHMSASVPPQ

AHR-inhibition = target: T6, AHR-inhibition (Homo sapiens, UniProt P35869); experiment: InVEST fluorescence polarization binding/cell-based activity, AHR-inhibition; conditions: read-out: IC50 (M) of reference compound, + 10 nM FICZ, tested in parallel
T6 sequence (P35869 11-848): T2 sequence (P35869 11-848)

Sequence of PDE4A (P27815 whole entry): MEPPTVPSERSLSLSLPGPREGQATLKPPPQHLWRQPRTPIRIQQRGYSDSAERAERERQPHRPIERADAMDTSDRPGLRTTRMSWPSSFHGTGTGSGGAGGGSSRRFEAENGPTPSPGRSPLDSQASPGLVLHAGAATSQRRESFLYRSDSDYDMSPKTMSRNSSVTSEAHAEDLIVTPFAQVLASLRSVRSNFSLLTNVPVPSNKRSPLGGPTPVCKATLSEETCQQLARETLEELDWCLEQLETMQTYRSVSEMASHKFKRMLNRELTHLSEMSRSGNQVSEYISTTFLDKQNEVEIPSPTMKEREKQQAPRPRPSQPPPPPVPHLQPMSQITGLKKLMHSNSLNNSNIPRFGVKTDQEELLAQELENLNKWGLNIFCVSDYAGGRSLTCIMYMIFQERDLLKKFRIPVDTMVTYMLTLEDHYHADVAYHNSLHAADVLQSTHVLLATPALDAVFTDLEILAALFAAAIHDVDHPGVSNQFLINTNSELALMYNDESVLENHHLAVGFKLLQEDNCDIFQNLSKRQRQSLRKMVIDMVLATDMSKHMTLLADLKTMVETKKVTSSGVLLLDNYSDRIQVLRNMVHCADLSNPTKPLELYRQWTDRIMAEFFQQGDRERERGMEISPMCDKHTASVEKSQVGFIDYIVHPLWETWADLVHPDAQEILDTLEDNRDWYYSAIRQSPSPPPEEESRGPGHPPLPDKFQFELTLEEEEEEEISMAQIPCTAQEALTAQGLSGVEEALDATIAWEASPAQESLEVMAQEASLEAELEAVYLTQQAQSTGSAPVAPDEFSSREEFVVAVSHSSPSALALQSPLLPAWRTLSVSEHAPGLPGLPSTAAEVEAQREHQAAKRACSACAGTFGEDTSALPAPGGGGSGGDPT
Sequence of 5-HT1B (P28222 whole entry): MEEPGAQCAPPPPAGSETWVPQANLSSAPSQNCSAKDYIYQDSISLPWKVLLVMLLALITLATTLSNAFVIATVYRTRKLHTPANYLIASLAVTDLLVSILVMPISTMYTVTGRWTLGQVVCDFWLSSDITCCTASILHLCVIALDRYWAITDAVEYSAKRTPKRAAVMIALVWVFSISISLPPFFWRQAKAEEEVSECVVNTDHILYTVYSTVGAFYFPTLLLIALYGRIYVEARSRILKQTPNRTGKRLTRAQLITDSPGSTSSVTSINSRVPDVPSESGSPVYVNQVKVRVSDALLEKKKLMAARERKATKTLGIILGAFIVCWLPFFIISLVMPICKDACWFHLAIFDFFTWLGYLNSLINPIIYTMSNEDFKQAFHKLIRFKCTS
Sequence of PDE3A (Q14432 whole entry): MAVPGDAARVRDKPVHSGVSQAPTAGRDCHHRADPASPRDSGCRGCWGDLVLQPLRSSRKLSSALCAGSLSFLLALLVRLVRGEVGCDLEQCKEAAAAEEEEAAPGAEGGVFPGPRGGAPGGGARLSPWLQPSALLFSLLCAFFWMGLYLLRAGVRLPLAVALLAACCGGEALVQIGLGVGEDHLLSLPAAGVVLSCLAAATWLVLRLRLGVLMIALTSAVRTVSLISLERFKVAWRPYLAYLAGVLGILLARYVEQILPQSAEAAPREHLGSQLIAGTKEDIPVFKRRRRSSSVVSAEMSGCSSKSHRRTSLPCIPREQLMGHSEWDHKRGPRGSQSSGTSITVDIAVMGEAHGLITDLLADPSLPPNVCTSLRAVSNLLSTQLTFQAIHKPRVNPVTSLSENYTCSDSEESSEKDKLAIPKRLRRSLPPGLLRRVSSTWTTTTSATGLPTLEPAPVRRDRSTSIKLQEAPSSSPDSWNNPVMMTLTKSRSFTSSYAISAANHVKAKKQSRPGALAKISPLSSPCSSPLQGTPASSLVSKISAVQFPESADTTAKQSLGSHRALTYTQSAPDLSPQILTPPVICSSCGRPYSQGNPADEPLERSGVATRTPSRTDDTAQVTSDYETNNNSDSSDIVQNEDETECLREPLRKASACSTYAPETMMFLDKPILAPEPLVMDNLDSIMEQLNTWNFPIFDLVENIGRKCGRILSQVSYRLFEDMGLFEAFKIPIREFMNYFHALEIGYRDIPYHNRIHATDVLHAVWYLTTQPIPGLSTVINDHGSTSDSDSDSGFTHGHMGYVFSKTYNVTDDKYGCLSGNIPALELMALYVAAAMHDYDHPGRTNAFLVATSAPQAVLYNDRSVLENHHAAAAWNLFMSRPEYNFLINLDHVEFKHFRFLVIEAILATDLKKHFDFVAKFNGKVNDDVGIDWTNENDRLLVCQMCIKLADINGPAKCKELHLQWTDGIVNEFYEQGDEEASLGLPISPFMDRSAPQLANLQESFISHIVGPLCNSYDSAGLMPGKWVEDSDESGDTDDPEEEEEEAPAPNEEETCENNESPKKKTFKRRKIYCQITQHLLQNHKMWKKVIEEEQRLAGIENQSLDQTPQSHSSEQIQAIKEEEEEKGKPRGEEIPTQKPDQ

CCCN(CCC)CC1CCCCN1CCNC(=O)N1c2ccccc2C(=O)Nc2cccnc21 (stereo not shown) [AF-DX 384, reference compound] showed an IC50 (Muscarinic M2) of 1.79e-08 M.

O=Cc1c2[nH]c3ccccc3c2cc2[nH]c3ccccc3c12 [FICZ] showed an IC50 (AHR-activation) of 10.5 nM.

With COc1ccc(NC(=O)c2ccc(-c3ccncc3)c(C)c2)cc1N1CCN(C)CC1 [GR125743, reference compound] the IC50 (5-HT1B) was 4.85 nM.

Work on Cc1[nH]cnc1CCC(=O)c1cn(C)c2ccccc12 [GR 65630, reference compound] yielded an IC50 (5-HT3) of 1.09e-09 M.

Work on CC(C)Cn1c(=O)n(C)c(=O)c2[nH]cnc21 [IBMX, reference compound] yielded an IC50 (PDE3A) of 2.21e-05 M and an IC50 (PDE4A) of 3e-05 M.

COC1(C2=NCCN2)COc2ccccc2O1 (stereo not shown) [RX 821002, reference compound] gave an IC50 (alpha2A adrenergic) of 1.15e-08 M.

Compound CCOC(=O)c1ccc(OC(=O)CCCCCN=C(N)N)cc1 [gabexate mesylate, reference compound] has an IC50 (Thrombin alpha) of 2.26e-06 M.

For CCCCCN(CCCCC)C(=O)C(CCC(=O)O)NC(=O)c1ccc(Cl)c(Cl)c1 (stereo not shown) [lorglumide, reference compound], the IC50 (CCK) was 3.78 nM.

With GNF-351 [reference compound] the IC50 (AHR-inhibition) was 2.9e-07 M.
